Assay results as given in patent US20040224313A1, “Polymorphisms in the human cyp2b6 gene and their use in diagnostic and therapeutic applications” (priority 2000, published 2004).
Positions count from the first letter of the chain named.

Tests used:
CYP2B6 [1] = details: human liver microsomes, heterozygous carriers of R487C (C1459T)
Experimental: (§1) FIG. 4: Analysis of CYP2B6 protein expression (A) and enzymatic function (B). CYP2B6 protein was determined by immunoblotting and the S-mephenytoin N-demethylation to Nirvanol was measured in 92 liver microsome samples. The 5 nonsynonymous CYP2B6 mutations were determined in DNA from the same 92 individuals. Wt indicates the group of 30 individuals with homozygous wild-type genotype; 487 R/C and 487 C/C show the results for individuals heterozygous or homozygous for the exon 9 mutation, respectively. All other mutant genotypes are collectively shown. The average expression and activity of each group is shown as horizontal line. Statistical significance was evaluated by the t-test in comparison to the Wt group: * P<0.05; ** P<0.01.
(§2) The functional significance of the mutations in the CYP2B6 gene (Table 2) was investigated by analyzing expression and enzymatic activity of CYP2B6 in a large human liver bank. A specific monoclonal antibody, MAB-2B6 (Gentest Corp., Woburn, Mass., USA) was used to immunoquantitate microsomal CYP2B6. S-mephenytoin N-demethylation to Nirvanol was measured as a rather CYP2B6-specific pathway. The five nonsynonymous mutations were determined in all samples.

CYP2B6 [2] = target: T1, CYP2B6 (Homo sapiens, UniProt P20813, R487C); details: human liver microsomes, homozygous carriers of R487C (C1459T)
T1 sequence (P20813 1-491 R487C): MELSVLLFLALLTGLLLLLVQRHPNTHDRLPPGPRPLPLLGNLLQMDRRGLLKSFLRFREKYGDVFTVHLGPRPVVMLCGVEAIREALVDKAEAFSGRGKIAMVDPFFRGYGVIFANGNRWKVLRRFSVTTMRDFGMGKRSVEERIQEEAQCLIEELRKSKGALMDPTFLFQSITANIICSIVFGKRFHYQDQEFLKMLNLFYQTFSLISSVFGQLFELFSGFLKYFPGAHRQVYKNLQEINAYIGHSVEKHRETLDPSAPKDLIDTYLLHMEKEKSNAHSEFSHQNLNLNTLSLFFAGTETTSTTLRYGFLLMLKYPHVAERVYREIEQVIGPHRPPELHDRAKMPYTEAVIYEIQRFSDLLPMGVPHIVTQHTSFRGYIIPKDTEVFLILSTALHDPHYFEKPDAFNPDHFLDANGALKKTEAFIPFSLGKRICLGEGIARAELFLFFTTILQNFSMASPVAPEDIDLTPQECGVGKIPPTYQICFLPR
Experimental: as §1, §2

CYP2B6 [3] = target: T2, CYP2B6 (Homo sapiens, UniProt P20813); details: human liver microsomes, homozygous wild-type (Wt) group
T2 sequence (P20813 1-491): T1 sequence (P20813 1-491 R487C) with C487R
Experimental: as §1, §2

SMILES: CC[C@@]1(c2ccccc2)NC(=O)N(C)C1=O [S-mephenytoin]
- mean enzyme activity, S-mephenytoin N-demethylation (CYP2B6 [1]): 25.9±15.2 pmoles of nirvanol formed/min*mg
- mean enzyme activity, S-mephenytoin N-demethylation (CYP2B6 [2]): 22.2±8.4 pmoles of nirvanol formed/min*mg
- mean enzyme activity, S-mephenytoin N-demethylation (CYP2B6 [3]): 49.2±49.4 pmoles of nirvanol formed/min*mg
